This test concerns P388 leukemia ip, CD2F1 mice, survival T/C. In words: NCI In Vivo Anticancer Drug Screen. Data for tumor model P388 Leukemia (intraperitoneal) in CD2F1 (CDF1) mice. The settings on record: endpoint: median survival time, higher = longer survival. The method in brief:
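Mice carrying the transplanted tumor received test compound or vehicle. Survival was recorded in each group, and the value is the treated-group measurement divided by that of the vehicle-treated control group.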

Setting [1] is: dose: 50.0 mg/kg/injection, schedule: Q01DX005 (ip), vehicle: saline with Tween-80.
The mark [2] stands for this setting: dose: 100.0 mg/kg/injection, schedule: Q01DX005 (ip), vehicle: saline with Tween-80.
Setting [3] is: dose: 50.0 mg/kg/injection, schedule: Q01DX009 (ip), vehicle: saline with Tween-80.
Where [4] appears, read: dose: 100.0 mg/kg/injection, schedule: Q01DX009 (ip), vehicle: saline with Tween-80.
Where [5] appears, read: dose: 200.0 mg/kg/injection, schedule: Q01DX009 (ip), vehicle: saline with Tween-80.
The mark [6] stands for this setting: dose: 60.0 mg/kg/injection, schedule: Q01DX005 (ip), vehicle: saline with Tween-80.
The mark [7] stands for this setting: dose: 120.0 mg/kg/injection, schedule: Q01DX005 (ip), vehicle: saline with Tween-80.
Setting [8] is: dose: 240.0 mg/kg/injection, schedule: Q01DX005 (ip), vehicle: saline with Tween-80.
[9] abbreviates: dose: 6.25 mg/kg/injection, schedule: Q04DX003 (ip), vehicle: Klucel (hydroxypropylcellulose) (HPC).
Setting [10] is: dose: 12.5 mg/kg/injection, schedule: Q04DX003 (ip), vehicle: Klucel (hydroxypropylcellulose) (HPC).
Setting [11] is: dose: 25.0 mg/kg/injection, schedule: Q04DX003 (ip), vehicle: Klucel (hydroxypropylcellulose) (HPC).

Molecules are shown by their SMILES. “And” between values parts separate entries of the source, which are not always exact repeats. Equal values may be shown once. Toxic doses and inconclusive results are not listed.

Regarding `O=C1CCCc2c1ccc1ccccc21`, the T/C reads like this: under setting [1], 100 % of control; under setting [2], 101 % of control; (dose: 200.0 mg/kg/injection, schedule: Q01DX005 (ip), vehicle: saline with Tween-80) 98 % of control.
`CCOC(=O)c1[nH]c2ccc(OC)c3c2c1CCC3=O`: the T/C is 92 % of control under setting [3], 92 % of control under setting [4] and 92 % of control under setting [5].
As to `CN(C)c1ccc2c(c1)C(=O)N(OS(C)(=O)=O)C2=O`, the T/C (dose: 25.0 mg/kg/injection, schedule: Q01DX005 (ip), vehicle: saline with Tween-80) was 111 % of control; the T/C under setting [1] was 108 % of control and 117 % of control; the T/C under setting [2] is 106 % of control.
`O=C(O)CNCCCNCC(=O)O`: the T/C (dose: 50.0 mg/kg/injection, schedule: Q01DX005 (ip), vehicle: saline) is 94 % of control; the T/C (dose: 100.0 mg/kg/injection, schedule: Q01DX005 (ip), vehicle: saline) was 88 % of control; the T/C (dose: 200.0 mg/kg/injection, schedule: Q01DX005 (ip), vehicle: saline) was 99 % of control.
In the case of `COc1ccc2c(c1)CCC1C2CCC2(C)C1CCC2(O)CCN=[N+]=[N-]` (centres undefined), the T/C reads like this: under setting [3], 104 % of control; under setting [4], 101 % of control; under setting [5], 101 % of control.
With `O=C1OC(Oc2ccccc2)c2cc3c(cc21)OCO3` (centres undefined), the T/C by setting is: under setting [6], 90 % of control; under setting [7], 90 % of control; under setting [8], 99 % of control.
For `CC(C)=COS(=O)(=O)C(F)(F)F`, the T/C runs as follows: (dose: 50.0 mg/kg/injection, schedule: Q01DX009 (ip), vehicle: olive oil, sesame oil, peanut oil) 99 % of control; (dose: 100.0 mg/kg/injection, schedule: Q01DX009 (ip), vehicle: olive oil, sesame oil, peanut oil) 96 % of control; (dose: 200.0 mg/kg/injection, schedule: Q01DX009 (ip), vehicle: olive oil, sesame oil, peanut oil) 90 % of control.
`C1CNC(CCNCCSCCNCCC2=NCCN2)=N1`: the T/C is 100 % of control (dose: 12.5 mg/kg/injection, schedule: Q01DX009 (ip), vehicle: saline); 96 % of control (dose: 25.0 mg/kg/injection, schedule: Q01DX009 (ip), vehicle: saline); 100 % of control (dose: 50.0 mg/kg/injection, schedule: Q01DX009 (ip), vehicle: saline).
As for `O=S1C2CCC(Br)C1CCC2Br` (centres undefined), the T/C reads like this: (dose: 0.39 mg/kg/injection, schedule: Q04DX002 (ip), vehicle: saline + alcohol) 105 % of control; (dose: 0.78 mg/kg/injection, schedule: Q04DX002 (ip), vehicle: saline + alcohol) 100 % of control; (dose: 1.56 mg/kg/injection, schedule: Q04DX002 (ip), vehicle: saline + alcohol) 101 % of control.
As for `CCCc1cc(-c2cccc3ccccc23)c(CCC)c2c1-c1cccc3cccc-2c13`, the T/C runs as follows: under setting [3], 97 % of control; under setting [4], 96 % of control.
Consider `Cc1ccc(NS(=O)(=O)c2ccc3ccccc3c2)c(C)c1`, for which the T/C is 100 % of control (dose: 100.0 mg/kg/injection, schedule: Q04DX003 (ip), vehicle: saline with Tween-80); 100 % of control (dose: 200.0 mg/kg/injection, schedule: Q04DX003 (ip), vehicle: saline with Tween-80); 104 % of control (dose: 400.0 mg/kg/injection, schedule: Q04DX003 (ip), vehicle: saline with Tween-80).
On to `CSc1nc(SC)c2nc(SC)n(-c3ccccc3)c2n1`, for which the T/C (dose: 3.13 mg/kg/injection, schedule: Q01DX009 (ip), vehicle: saline with Tween-80) was 102 % of control; the T/C (dose: 6.25 mg/kg/injection, schedule: Q01DX009 (ip), vehicle: saline with Tween-80) is 104 % of control; the T/C (dose: 12.5 mg/kg/injection, schedule: Q01DX009 (ip), vehicle: saline with Tween-80) was 101 % of control; the T/C (dose: 25.0 mg/kg/injection, schedule: Q01DX009 (ip), vehicle: saline with Tween-80) is 97 % of control.
Turning to `OC(c1ccccc1)(c1ccc(Br)cc1)C1CC1` (centres undefined), the T/C reads like this: (dose: 25.0 mg/kg/injection, schedule: Q01DX001 (ip), vehicle: Klucel (hydroxypropylcellulose) (HPC)) 100 % of control; (dose: 50.0 mg/kg/injection, schedule: Q01DX001 (ip), vehicle: Klucel (hydroxypropylcellulose) (HPC)) 96 % of control; (dose: 100.0 mg/kg/injection, schedule: Q01DX001 (ip), vehicle: Klucel (hydroxypropylcellulose) (HPC)) 97 % of control.
For `COC(C)(C)c1ccc(C)c(O)c1`, the T/C reads like this: (dose: 4.38 mg/kg/injection, schedule: Q01DX005 (ip), vehicle: Klucel (hydroxypropylcellulose) (HPC)) 96 % of control; (dose: 8.75 mg/kg/injection, schedule: Q01DX005 (ip), vehicle: Klucel (hydroxypropylcellulose) (HPC)) 95 % of control; (dose: 17.5 mg/kg/injection, schedule: Q01DX005 (ip), vehicle: Klucel (hydroxypropylcellulose) (HPC)) 92 % of control; (dose: 35.0 mg/kg/injection, schedule: Q01DX005 (ip), vehicle: Klucel (hydroxypropylcellulose) (HPC)) 91 % of control.
With `COC1C(O[C@@H]2c3c(cc4c(c3O)C(=O)c3c(O)cccc3C4=O)C(=O)C(C)(O)C2OC)OC(C)C(O)C1O` (some centres undefined), the T/C under setting [9] was 102 % of control; the T/C under setting [10] is 101 % of control; the T/C under setting [11] was 106 % of control; the T/C (dose: 50.0 mg/kg/injection, schedule: Q04DX003 (ip), vehicle: Klucel (hydroxypropylcellulose) (HPC)) is 101 % of control and 104 % of control; the T/C (dose: 100.0 mg/kg/injection, schedule: Q04DX003 (ip), vehicle: Klucel (hydroxypropylcellulose) (HPC)) is 104 % of control; the T/C (dose: 200.0 mg/kg/injection, schedule: Q04DX003 (ip), vehicle: Klucel (hydroxypropylcellulose) (HPC)) is 121 % of control.
As for `CC1(C)C(=O)CCC2(C)C1CC(=O)C1(C)C2CCC2(C)C(c3ccoc3)OC(=O)C3OC321` (centres undefined), the T/C is 100 % of control and 102 % of control (dose: 0.5 mg/kg/injection, schedule: Q01DX009 (ip), vehicle: Klucel (hydroxypropylcellulose) (HPC)); 102 % of control (dose: 1.0 mg/kg/injection, schedule: Q01DX009 (ip), vehicle: Klucel (hydroxypropylcellulose) (HPC)); 92 % of control and 96 % of control (dose: 2.0 mg/kg/injection, schedule: Q01DX009 (ip), vehicle: Klucel (hydroxypropylcellulose) (HPC)); 98 % of control and 93 % of control (dose: 4.0 mg/kg/injection, schedule: Q01DX009 (ip), vehicle: Klucel (hydroxypropylcellulose) (HPC)); 98 % of control and 86 % of control (dose: 8.0 mg/kg/injection, schedule: Q01DX009 (ip), vehicle: Klucel (hydroxypropylcellulose) (HPC)).
In the case of `CCC1(c2ccc(C)cc2)C(=O)NCNC1=O`, the T/C runs as follows: (dose: 60.0 mg/kg/injection, schedule: Q01DX005 (ip), vehicle: Klucel (hydroxypropylcellulose) (HPC)) 102 % of control; (dose: 120.0 mg/kg/injection, schedule: Q01DX005 (ip), vehicle: Klucel (hydroxypropylcellulose) (HPC)) 102 % of control; (dose: 240.0 mg/kg/injection, schedule: Q01DX005 (ip), vehicle: Klucel (hydroxypropylcellulose) (HPC)) 100 % of control.
As for `O=C(Nc1ccc(C2=NCCN2)cc1)c1cc2ccc(C3=NCCN3)cc2o1`, the T/C is 104 % of control (dose: 100.0 mg/kg/injection, schedule: Q04DX003 (ip), vehicle: suspension in saline) and 119 % of control (dose: 200.0 mg/kg/injection, schedule: Q04DX003 (ip), vehicle: suspension in saline).
As for `OC1c2cc(Cl)ccc2-c2c(N=Cc3ccc4c(c3)OCO4)cc(Cl)cc21` (centres undefined), the T/C was 91 % of control under setting [6], 99 % of control under setting [7] and 98 % of control under setting [8].
With `COc1cc(/C=N/NC(=O)CN(C)C)cc(OC)c1N(CCCl)CCCl`, the T/C was 116 % of control (dose: 6.25 mg/kg/injection, schedule: Q01DX009 (ip), vehicle: Klucel (hydroxypropylcellulose) (HPC)); 152 % of control (dose: 25.0 mg/kg/injection, schedule: Q01DX009 (ip), vehicle: Klucel (hydroxypropylcellulose) (HPC)); 186 % of control and 189 % of control (dose: 50.0 mg/kg/injection, schedule: Q01DX009 (ip), vehicle: Klucel (hydroxypropylcellulose) (HPC)); 93 % of control (dose: 100.0 mg/kg/injection, schedule: Q01DX009 (ip), vehicle: Klucel (hydroxypropylcellulose) (HPC)).
On to `COC(C)(C)[CH]([Hg][Cl])n1ccccc1=O` (centres undefined), for which the T/C is, setting by setting: under setting [9], 100 % of control; under setting [10], 93 % of control; under setting [11], 99 % of control and 100 % of control.

For the origin of these results see PubChem BioAssay AID330 (DTP/NCI, 2004).
